One test concerns the target PIM-1 (Homo sapiens (Human), UniProt P11309). Description: PIM-1 Enzyme Assay. Type of test: biochemical. The method, then: The amount of radiolabeled product is then measured by liquid scintillation counting. The final buffer conditions were as follows: 20 mM K^+MOPS, pH 7.4, 10 mM MgCl2, 0.005% Tween-20, 1 mM DTT. […] Incubations were carried out for 60 min at 22° C. and quenched with 75 μL of 200 mM H3PO4, filtered through a Whatman P81 plate and washed (1×200 μL and 5×100 μL ) with 200 mM H3PO4. Liquid scintillation cocktail (50 μL ) was then added per well, and the plate was counted for 30 s/well using a TopCount NXT.
One-μL aliquots of these were then transferred to the assay mixtures above to give a final concentration of DMSO of 2%. […] For each plate, percent of control (POC) values were calculated for each well. IC50's were estimated from the POC's using a standard 4-parameter logistic model. The IC50 is defined as the concentration of inhibitor at which the POC equals 50 for the fitted curve.

In test [1] the target is GST-tagged recombinant full-length human PIM-2 (Homo sapiens (Human), UniProt Q9P1W9). The test is described as follows: PIM-2 Enzyme Assay. The note with it: read-out: PIM-2 IC50.

Structures are written as SMILES. Structures can show the parent of a compound that is named as a salt. Where two headings read alike, the source gives them in different places.

For orientation: IC50 means the concentration at which inhibition is half-maximal.

GST-tagged recombinant full-length human PIM-2, sequence (Q9P1W9 whole entry): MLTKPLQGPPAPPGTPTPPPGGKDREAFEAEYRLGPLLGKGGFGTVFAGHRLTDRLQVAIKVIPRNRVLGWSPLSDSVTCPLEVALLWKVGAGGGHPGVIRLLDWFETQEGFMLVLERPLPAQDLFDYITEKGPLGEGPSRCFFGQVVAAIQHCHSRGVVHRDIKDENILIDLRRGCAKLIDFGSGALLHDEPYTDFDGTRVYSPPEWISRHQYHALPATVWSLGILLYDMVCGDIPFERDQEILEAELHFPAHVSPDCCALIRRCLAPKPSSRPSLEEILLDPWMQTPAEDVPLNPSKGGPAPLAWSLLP
PIM-1, sequence (P11309 whole entry, species assumed): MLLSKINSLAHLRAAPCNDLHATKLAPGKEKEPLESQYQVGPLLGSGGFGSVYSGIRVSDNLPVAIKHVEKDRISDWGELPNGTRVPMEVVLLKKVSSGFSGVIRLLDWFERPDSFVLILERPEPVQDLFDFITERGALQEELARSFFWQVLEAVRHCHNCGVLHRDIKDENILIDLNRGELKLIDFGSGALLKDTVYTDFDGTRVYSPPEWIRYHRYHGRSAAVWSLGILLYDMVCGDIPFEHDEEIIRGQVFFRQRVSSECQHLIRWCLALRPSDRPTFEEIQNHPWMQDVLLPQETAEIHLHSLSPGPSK

As for `OC1(COc2cccc3ccc(-c4nnc5ccccn45)nc23)CCNCC1` [Example 72], the IC50 against PIM-1 (35 μM ATP, 0.25 nM PIM-1) stood at 5.3 nM; in test [1] (4 μM ATP, […] PIM-2), 588 nM.
Taken in the same sequence, the figures for `c1cc(Oc2ccncc2)c2nc(-c3nnc4ccccn34)ccc2c1` [Example 74, 2-([1,2,4]triazolo[4,3-a]pyridin-3-yl)-8-(pyridin-4-yloxy)quinoline] were 151 nM and 1990 nM.
For `Nc1cc(Oc2cccc3ccc(-c4nnc5ccccn45)nc23)ccn1` [Example 75, 4-(2-([1,2,4]triazolo[4,3-a]pyridin-3-yl)quinolin-8-yloxy)pyridin-2-amine], the IC50 against PIM-1 (35 μM ATP, 0.25 nM PIM-1) turned out to be 263 nM; in test [1] (4 μM ATP, […] PIM-2) it was 8940 nM.
With `Nc1nccc(Oc2cccc3ccc(-c4nnc5ccccn45)nc23)n1` [Example 76, 4-(2-([1,2,4]triazolo[4,3-a]pyridin-3-yl)quinolin-8-yloxy)pyrimidin-2-amine], the 50% inhibitory concentration (IC50) at PIM-1 (35 μM ATP, 0.25 nM PIM-1) turned out to be 648 nM; in test [1] (4 μM ATP, […] PIM-2) it was 10000 nM.
On to `FC1(COc2cccc3ccc(-c4nnc5ccc(Br)cn45)nc23)CCNCC1` [Example 77, 2-(6-bromo-[1,2,4]triazolo[4,3-a]pyridin-3-yl)-8-((4-fluoropiperidin-4-yl)methoxy)-quinoline dihydrochloride], for which the 50% inhibitory concentration (IC50) was 17 nM at PIM-1 (35 μM ATP, 0.25 nM PIM-1) and 1390 nM in test [1].
On to `FC1(COc2cccc3ccc(-c4nnc5ccc(C6CC6)cn45)nc23)CCNCC1` [Example 79, 2-(6-cyclopropyl-[1,2,4]triazolo[4,3-a]pyridin-3-yl)-8-((4-fluoropiperidin-4-yl)methoxy)quinoline dihydrochloride], for which the concentration for half-maximal inhibition (IC50) came out at 0.2 nM on PIM-1 (35 μM ATP, 0.25 nM PIM-1) and 55 nM in test [1] (4 μM ATP, […] PIM-2).
As to `FC1(COc2cccc3ccc(-c4nnc5ccc(-c6ccccc6)cn45)nc23)CCNCC1` [Example 81, 8-((4-fluoropiperidin-4-yl)methoxy)-2-(6-phenyl-[1,2,4]triazolo[4,3-a]pyridin-3-yl)quinoline dihydrochloride], the concentration for half-maximal inhibition (IC50) was 0.45 nM at PIM-1 and 142 nM in test [1] (4 μM ATP, […] PIM-2).
Turning to `NC(=O)CN1CCC(F)(COc2cccc3ccc(-c4nnc5ccccn45)nc23)CC1` [Example 83, 2-(4-((2-([1,2,4]triazolo[4,3-a]pyridin-3-yl)quinolin-8-yloxy)methyl)-4-fluoropiperidin-1-yl)acetamide], the IC50 on PIM-1 (35 μM ATP, 0.25 nM PIM-1) turned out to be 4 nM; in test [1] (4 μM ATP, […] PIM-2) it was 193 nM.
With `CN1CCC(F)(COc2cccc3ccc(-c4nnc5ccccn45)nc23)CC1` [Example 84, 2-([1,2,4]triazolo[4,3-a]pyridin-3-yl)-8-((4-fluoro-1-methylpiperidin-4-yl)methoxy)quinoline dihydrochloride], the IC50 was 2 nM on PIM-1 and 73 nM in test [1] (4 μM ATP, […] PIM-2).
As for `OCCN1CCC(F)(COc2cccc3ccc(-c4nnc5ccccn45)nc23)CC1` [Example 85, 2-(4-((2-([1,2,4]triazolo[4,3-a]pyridin-3-yl)quinolin-8-yloxy)methyl)-4-fluoropiperidin-1-yl)ethanol dihydrochloride], the IC50 against PIM-1 (35 μM ATP, 0.25 nM PIM-1) worked out at 2 nM; in test [1], 105 nM.
`Fc1cc(OC2CCNCC2(F)F)c2nc(-c3nnc4ccccn34)ccc2c1` (centres unmarked) [Example 93, 2-([1,2,4]triazolo[4,3-a]pyridin-3-yl)-8-(3,3-difluoropiperidin-4-yloxy)-6-fluoroquinoline dihydrochloride]: the IC50 was determined as 4.4 nM against PIM-1 (35 μM ATP, 0.25 nM PIM-1) and 506 nM in test [1] (4 μM ATP, […] PIM-2).
Turning to `Fc1ccc2nnc(-c3ccc4cccc(OCC5(F)CCNCC5)c4n3)n2c1` [Example 103, 2-(6-fluoro-[1,2,4]triazolo[4,3-a]pyridin-3-yl)-8-((4-fluoropiperidin-4-yl)methoxy)quinoline dihydrochloride], the IC50 against PIM-1 (35 μM ATP, 0.25 nM PIM-1) turned out to be 1.4 nM; in test [1], 65.6 nM.
Consider `CCN1CCC(F)(COc2cccc3ccc(-c4nnc5ccccn45)nc23)CC1` [Example 104, 2-([1,2,4]triazolo[4,3-a]pyridin-3-yl)-8((1-ethyl-4-fluoropiperidin-4-yl)methoxy)quinoline dihydrochloride], for which the IC50 on PIM-1 (35 μM ATP, 0.25 nM PIM-1) turned out to be 3.9 nM; in test [1] (4 μM ATP, […] PIM-2), 191 nM.
Taken in the same sequence, the figures for `FCCN1CCC(F)(COc2cccc3ccc(-c4nnc5ccccn45)nc23)CC1` [Example 105, 2-([1,2,4]triazolo[4,3-a]pyridin-3-yl)-8-((4-fluoro-1-(2-fluoroethyl)piperidin-4-yl)methoxy)quinoline dihydrochloride] were 8.7 nM and 409 nM.
For the molecule `Fc1cc(OCC2(F)CCNCC2)c2nc(-c3nnc4ccccn34)ccc2c1` [Example 106, 2-([1,2,4]triazolo[4,3-a]pyridin-3-yl)-6-fluoro-8-((4-fluoropiperidin-4-yl)methoxy)quinoline dihydrochloride], the IC50 was determined as 0.5 nM at PIM-1 (35 μM ATP, 0.25 nM PIM-1) and 25.4 nM in test [1] (4 μM ATP, […] PIM-2).
Turning to `FC1(COc2cccc3ccc(-c4nnc5ccccn45)nc23)CNC1` [Example 107, 2-([1,2,4]triazolo[4,3-a]pyridin-3-yl)-8-((3-fluoroazetidin-3-yl)methoxy)quinoline dihydrochloride], the 50% inhibitory concentration (IC50) stood at 9.4 nM at PIM-1 (35 μM ATP, 0.25 nM PIM-1) and 1000 nM in test [1] (4 μM ATP, […] PIM-2).
As for `Fc1cc(OCC2(F)CNC2)c2nc(-c3nnc4ccccn34)ccc2c1` [Example 108, 2-([1,2,4]triazolo[4,3-a]pyridin-3-yl)-6-fluoro-8-((3-fluoroazetidin-3-yl)methoxy)quinoline Dihydrochloride], the IC50 was 7.3 nM against PIM-1 and 489 nM in test [1] (4 μM ATP, […] PIM-2).
For `COc1ccc2nnc(-c3ccc4cccc(OCC5(F)CCNCC5)c4n3)n2c1` [Example 109, 8((4-fluoropiperidin-4-yl)methoxy)-2-(6-methoxy-[1,2,4]triazolo[4,3-a]pyridin-3-yl)quinoline dihydrochloride], the IC50 was 4.7 nM at PIM-1 (35 μM ATP, 0.25 nM PIM-1) and 384 nM in test [1] (4 μM ATP, […] PIM-2).
Consider `COc1ccc2nnc(-c3ccc4cc(F)cc(OCC5(F)CCNCC5)c4n3)n2c1` [Example 110, 6-fluoro-8-((4-fluoropiperidin-4-yl)methoxy)-2-(6-methoxy-[1,2,4]triazolo[4,3-a]pyridin-3-yl)quinoline dihydrochloride], for which the concentration for half-maximal inhibition (IC50) at PIM-1 (35 μM ATP, 0.25 nM PIM-1) worked out at 1.9 nM; in test [1] (4 μM ATP, […] PIM-2), 163 nM.
Take `COC1(COc2cc(F)cc3ccc(-c4nnc5ccccn45)nc23)CCCNCC1` (centres unmarked) [Example 114, 2-([1,2,4]triazolo[4,3-a]pyridin-3-yl)-6-fluoro-8-((4-methoxyazepan-4-yl)methoxy)quinoline bis-trifluoroacetate]: the half-maximal inhibitory concentration (IC50) on PIM-1 (35 μM ATP, 0.25 nM PIM-1) turned out to be 0.7 nM; in test [1] (4 μM ATP, […] PIM-2), 86 nM.
Consider `COC1(COc2cc(F)cc3ccc(-c4nnc5ccccn45)nc23)CCCN(CCO)CC1` (centres unmarked) [Example 115, 2-(4-42-([1,2,4]triazolo[4,3-a]pyridin-3-yl)-6-fluoroquinolin-8-yloxy)methyl)-4-methoxyazepan-1-yl)ethanol dihydrochloride], for which the IC50 on PIM-1 (35 μM ATP, 0.25 nM PIM-1) was found to be 1.4 nM; in test [1] (4 μM ATP, […] PIM-2) it was 222 nM.
In the case of `OC1(COc2cccc3ccc(-c4nnc5ccccn45)nc23)CCCNCC1` (centres unmarked) [Example 116, 4-((2-([1,2,4]triazolo[4,3-a]pyridin-3-yl)quinolin-8-yloxy)methyl)azepan-4-ol bis-trifluoroacetate], the IC50 at PIM-1 (35 μM ATP, 0.25 nM PIM-1) amounted to 11.8 nM; in test [1] it was 1000 nM.
Turning to `COC1(COc2cccc3ccc(-c4nnc5ccccn45)nc23)CCCNCC1` (centres unmarked) [Example 117, 2-([1,2,4]triazolo[4,3-a]pyridin-3-yl)-8-((4-methoxyazepan-4-yl)methoxy)quinoline dihydrochloride], the half-inhibitory concentration (IC50) against PIM-1 (35 μM ATP, 0.25 nM PIM-1) is 1 nM; in test [1] (4 μM ATP, […] PIM-2) it was 91.5 nM.
As to `CN1CCC(F)C(Oc2cccc3ccc(-c4nnc5ccccn45)nc23)CC1` (centres unmarked) [Example 119], the IC50 against PIM-1 (35 μM ATP, 0.25 nM PIM-1) was determined as 1.3 nM; in test [1] (4 μM ATP, […] PIM-2), 574 nM.
As to `Cc1ccn2c(-c3ccc4cccc(OCC(C)(C)CN)c4n3)nnc2c1` [Example 123, 2,2-dimethyl-3-(2-(7-methyl-[1,2,4]triazolo[4,3-a]pyridin-3-yl)quinolin-8-yloxy)propan-1-amine trihydrochloride], the IC50 on PIM-1 (35 μM ATP, 0.25 nM PIM-1) is 0.9 nM; in test [1] (4 μM ATP, […] PIM-2), 156 nM.
In the case of `F[C@@H]1CNCC[C@@H]1Oc1cccc2ccc(-c3nnc4cc(Cl)ccn34)nc12` [Example 124, 2-(7-chloro-[1,2,4]triazolo[4,3-a]pyridin-3-yl)-8-((3R,4S)-3-fluoropiperidin-4-yloxy)quinoline], the IC50 was determined as 31 nM at PIM-1 (35 μM ATP, 0.25 nM PIM-1) and 1000 nM in test [1] (4 μM ATP, […] PIM-2).
Taken in the same sequence, the figures for `COC1(COc2cccc3ccc(-c4nnc5cc(C)ccn45)nc23)CCNCC1` [Example 125, 8((4-methoxypiperidin-4-yl)methoxy)-2-(7-methyl-[1,2,4]triazolo[4,3-a]pyridin-3-yl)quinoline di-trifluoroacetate] were 1 nM and 429 nM.
For the molecule `c1cc(OCC2CNCCO2)c2nc(-c3nnc4ccccn34)ccc2c1` (centres unmarked) [Example 126], the concentration for half-maximal inhibition (IC50) turned out to be 14.2 nM against PIM-1 (35 μM ATP, 0.25 nM PIM-1) and 354 nM in test [1] (4 μM ATP, […] PIM-2).
Consider `NCC1(COc2cccc3ccc(-c4nnc5ccccn45)nc23)CCCC1` [Example 129, (1-((2-([1,2,4]triazolo[4,3-a]pyridin-3-yl)quinolin-8-yloxy)methyl)cyclopentyl)methanamine], for which the IC50 against PIM-1 (35 μM ATP, 0.25 nM PIM-1) was found to be 4.9 nM; in test [1] (4 μM ATP, […] PIM-2), 1000 nM.
`CCC(CO)COc1cccc2ccc(-c3nnc4ccccn34)nc12` (centres unmarked) [Example 130]: the 50% inhibitory concentration (IC50) on PIM-1 (35 μM ATP, 0.25 nM PIM-1) was 5.8 nM; in test [1] (4 μM ATP, […] PIM-2) it was 1000 nM.
`FC1(COc2cccc3ccc(-c4nnc5ccccn45)nc23)CCCNC1` (centres unmarked) [Example 133, 2-([1,2,4]triazolo[4,3-a]pyridin-3-yl)-8-((3-fluoropiperidin-3-yl)methoxy)quinoline]: the half-inhibitory concentration (IC50) against PIM-1 (35 μM ATP, 0.25 nM PIM-1) is 1.6 nM; in test [1] (4 μM ATP, […] PIM-2), 142 nM.
